Assay results as given in ChEMBL document CHEMBL3045255, “Novel quinolyl-thienyl chalcones and their 2-pyrazoline derivatives with diverse substitution pattern as antileishmanial agents against Leishmania major” (Med Chem Res, 2012).
Converted amounts (≈) assume the structure as drawn.

System: Leishmania major
Assay: Antileishmanial activity against promastigotes form of Leishmania major after 72 hr by cell counting using neubaur chamber
Type: functional, organism-based

IC50	SMILES
0.88 mg/L (≈ 2.8 µM)	Cc1ccc2cc(/C=C/C(=O)c3ccsc3)c(Cl)nc2c1
0.92 mg/L (≈ 2.81 µM)	Cc1ccc2cc(/C=C/C(=O)c3sccc3C)c(Cl)nc2c1
0.83 mg/L (≈ 2.53 µM)	Cc1csc(C(=O)/C=C/c2cc3ccc(C)cc3nc2Cl)c1
0.74 mg/L (≈ 2.26 µM)	Cc1ccc2cc(/C=C/C(=O)c3ccc(C)s3)c(Cl)nc2c1
0.62 mg/L (≈ 1.81 µM)	Cc1ccc2cc(/C=C/C(=O)c3cc(C)sc3C)c(Cl)nc2c1
0.59 mg/L (≈ 1.69 µM)	Cc1ccc2cc(/C=C/C(=O)c3sccc3Cl)c(Cl)nc2c1
0.81 mg/L (≈ 2.33 µM)	Cc1ccc2cc(/C=C/C(=O)c3ccc(Cl)s3)c(Cl)nc2c1
0.78 mg/L (≈ 2.04 µM)	Cc1ccc2cc(/C=C/C(=O)c3cc(Cl)sc3Cl)c(Cl)nc2c1
0.71 mg/L (≈ 1.81 µM)	Cc1ccc2cc(/C=C/C(=O)c3sccc3Br)c(Cl)nc2c1
0.91 mg/L (≈ 2.32 µM)	Cc1ccc2cc(/C=C/C(=O)c3ccc(Br)s3)c(Cl)nc2c1
0.84 mg/L (≈ 1.91 µM)	Cc1ccc2cc(/C=C/C(=O)c3ccc(I)s3)c(Cl)nc2c1
0.61 mg/L (≈ 1.94 µM)	Cc1cccc2cc(/C=C/C(=O)c3ccsc3)c(Cl)nc12
0.94 mg/L (≈ 2.87 µM)	Cc1ccsc1C(=O)/C=C/c1cc2cccc(C)c2nc1Cl
0.59 mg/L (≈ 1.8 µM)	Cc1csc(C(=O)/C=C/c2cc3cccc(C)c3nc2Cl)c1
0.61 mg/L (≈ 1.86 µM)	Cc1ccc(C(=O)/C=C/c2cc3cccc(C)c3nc2Cl)s1
0.73 mg/L (≈ 2.14 µM)	Cc1cc(C(=O)/C=C/c2cc3cccc(C)c3nc2Cl)c(C)s1
0.78 mg/L (≈ 2.24 µM)	Cc1cccc2cc(/C=C/C(=O)c3sccc3Cl)c(Cl)nc12
0.65 mg/L (≈ 1.87 µM)	Cc1cccc2cc(/C=C/C(=O)c3ccc(Cl)s3)c(Cl)nc12
0.85 mg/L (≈ 2.22 µM)	Cc1cccc2cc(/C=C/C(=O)c3cc(Cl)sc3Cl)c(Cl)nc12
0.93 mg/L (≈ 2.37 µM)	Cc1cccc2cc(/C=C/C(=O)c3sccc3Br)c(Cl)nc12
0.78 mg/L (≈ 1.99 µM)	Cc1cccc2cc(/C=C/C(=O)c3ccc(Br)s3)c(Cl)nc12

IC50	SMILES
0.67 mg/L (≈ 1.52 µM)	Cc1cccc2cc(/C=C/C(=O)c3ccc(I)s3)c(Cl)nc12
0.93 mg/L (≈ 2.29 µM)	Cc1ccc2cc(C3CC(c4ccc(Br)s4)=NN3)c(Cl)nc2c1 (centres undefined)
0.88 mg/L (≈ 1.94 µM)	Cc1ccc2cc(C3CC(c4ccc(I)s4)=NN3)c(Cl)nc2c1 (centres undefined)
0.78 mg/L (≈ 2.28 µM)	Cc1ccsc1C1=NNC(c2cc3cccc(C)c3nc2Cl)C1 (centres undefined)
0.74 mg/L (≈ 2.16 µM)	Cc1csc(C2=NNC(c3cc4cccc(C)c4nc3Cl)C2)c1 (centres undefined)
0.89 mg/L (≈ 2.6 µM)	Cc1ccc(C2=NNC(c3cc4cccc(C)c4nc3Cl)C2)s1 (centres undefined)
0.93 mg/L (≈ 2.61 µM)	Cc1cc(C2=NNC(c3cc4cccc(C)c4nc3Cl)C2)c(C)s1 (centres undefined)
0.84 mg/L (≈ 2.32 µM)	Cc1cccc2cc(C3CC(c4sccc4Cl)=NN3)c(Cl)nc12 (centres undefined)
0.75 mg/L (≈ 2.07 µM)	Cc1cccc2cc(C3CC(c4ccc(Cl)s4)=NN3)c(Cl)nc12 (centres undefined)
0.79 mg/L (≈ 1.99 µM)	Cc1cccc2cc(C3CC(c4cc(Cl)sc4Cl)=NN3)c(Cl)nc12 (centres undefined)
0.94 mg/L (≈ 2.31 µM)	Cc1cccc2cc(C3CC(c4sccc4Br)=NN3)c(Cl)nc12 (centres undefined)
0.93 mg/L (≈ 2.29 µM)	Cc1cccc2cc(C3CC(c4ccc(Br)s4)=NN3)c(Cl)nc12 (centres undefined)
0.77 mg/L (≈ 1.7 µM)	Cc1cccc2cc(C3CC(c4ccc(I)s4)=NN3)c(Cl)nc12 (centres undefined)
0.76 mg/L (≈ 2.22 µM)	Cc1ccc2cc(C3CC(c4sccc4C)=NN3)c(Cl)nc2c1 (centres undefined)
0.87 mg/L (≈ 2.54 µM)	Cc1csc(C2=NNC(c3cc4ccc(C)cc4nc3Cl)C2)c1 (centres undefined)
0.89 mg/L (≈ 2.6 µM)	Cc1ccc2cc(C3CC(c4ccc(C)s4)=NN3)c(Cl)nc2c1 (centres undefined)
0.76 mg/L (≈ 2.14 µM)	Cc1ccc2cc(C3CC(c4cc(C)sc4C)=NN3)c(Cl)nc2c1 (centres undefined)
0.78 mg/L (≈ 2.15 µM)	Cc1ccc2cc(C3CC(c4sccc4Cl)=NN3)c(Cl)nc2c1 (centres undefined)
0.83 mg/L (≈ 2.29 µM)	Cc1ccc2cc(C3CC(c4ccc(Cl)s4)=NN3)c(Cl)nc2c1 (centres undefined)
0.71 mg/L (≈ 1.79 µM)	Cc1ccc2cc(C3CC(c4cc(Cl)sc4Cl)=NN3)c(Cl)nc2c1 (centres undefined)
0.85 mg/L (≈ 2.09 µM)	Cc1ccc2cc(C3CC(c4sccc4Br)=NN3)c(Cl)nc2c1 (centres undefined)

SMILES	IC50
Cc1cccc2cc(C3CC(c4ccsc4)=NN3)c(Cl)nc12 (centres undefined)	0.67 mg/L (≈ 2.04 µM)
Cc1ccc2cc(C3CC(c4ccsc4)=NN3)c(Cl)nc2c1 (centres undefined)	0.94 mg/L (≈ 2.87 µM)
